Assay results taken from ChEMBL document CHEMBL3885861, “Open TG-GATES”.

Organism: Rattus norvegicus
Assay: Open TG-GATES - Regimen: Daily Repeat
Format: toxicity, organism-based, Sprague-Dawley
Parameters: regimen Daily Repeat, gender Male, age 6 weeks
Conditions: in vivo, po, 100 mg/kg, route gavage, dose level Middle; for APTT / Bas / Eos / Fbg / Hb / Ht / Lym / MCH / MCHC / MCV / Mono / Neu / PT / Plat / RBC / Ret / WBC: tissue Blood; for KIDNEY_L / KIDNEY_R / KIDNEY_TOTAL: tissue Kidney; for LIVER: tissue Liver; for A/G / ALP / ALT / AST / BUN / CRE / Ca / Cl / DBIL / GLC / IP / K / LDH / Na / PL / RALB / TBIL / TC / TG / TP / gamma-GTP: tissue Plasma

CCCNC(=O)NS(=O)(=O)c1ccc(Cl)cc1 [CHLORPROPAMIDE]
TERMINAL_BW (72 h, time 3 day): 208.2 g | APTT (72 h, time 3 day): 17.5 s | Bas (72 h, time 3 day): 0% | Eos (72 h, time 3 day): 1% | Fbg (72 h, time 3 day): 275.8 mg/dL | Hb (72 h, time 3 day): 13 g/dL | Ht (72 h, time 3 day): 40.2% | Lym (72 h, time 3 day): 77.2% | MCH (72 h, time 3 day): 20.8 pg | MCHC (72 h, time 3 day): 32.5% | MCV (72 h, time 3 day): 64.1 fL | Mono (72 h, time 3 day): 2.6% | Neu (72 h, time 3 day): 18.2% | PT (72 h, time 3 day): 16.2 s | Plat (72 h, time 3 day): 111.5 x10_4/uL | RBC (72 h, time 3 day): 626.8 x10_4/ul | Ret (72 h, time 3 day): 6.2% | WBC (72 h, time 3 day): 65.6 x10_2/uL | KIDNEY_L (72 h, time 3 day): 0.9 g | KIDNEY_R (72 h, time 3 day): 0.9 g | KIDNEY_TOTAL (72 h, time 3 day): 1.8 g | LIVER (72 h, time 3 day): 9.3 g | A/G (72 h, time 3 day): 0.8 | ALP (72 h, time 3 day): 1720.4 IU/L | ALT (72 h, time 3 day): 49.2 IU/L | AST (72 h, time 3 day): 71.2 IU/L | BUN (72 h, time 3 day): 17 mg/dL | CRE (72 h, time 3 day): 0.2 mg/dL | Ca (72 h, time 3 day): 10.6 mg/dL | Cl (72 h, time 3 day): 106.6 meq/L | DBIL (72 h, time 3 day): 0.008 mg/dL | GLC (72 h, time 3 day): 174.6 mg/dL | IP (72 h, time 3 day): 7.7 mg/dL | K (72 h, time 3 day): 3.7 meq/L | LDH (72 h, time 3 day): 65.6 IU/L | Na (72 h, time 3 day): 142.6 meq/L | PL (72 h, time 3 day): 154.6 mg/dL | RALB (72 h, time 3 day): 2.6 g/dL | TBIL (72 h, time 3 day): 0.022 mg/dL | TC (72 h, time 3 day): 85.4 mg/dL | TG (72 h, time 3 day): 76.6 mg/dL | TP (72 h, time 3 day): 5.7 g/dL | gamma-GTP (72 h, time 3 day): 1 IU/L | TERMINAL_BW ([…], time 7 day): 237.9 g | TERMINAL_BW ([…], time 14 day): 287.5 g | TERMINAL_BW ([…], time 28 day): 344.3 g | APTT ([…], time 7 day): 17.8 s | Bas ([…], time 7 day): 0% | Eos ([…], time 7 day): 1% | Fbg ([…], time 7 day): 277.2 mg/dL | Hb ([…], time 7 day): 13.2 g/dL | Ht ([…], time 7 day): 39.7% | Lym ([…], time 7 day): 77.8% | MCH ([…], time 7 day): 20.7 pg | MCHC ([…], time 7 day): 33.2% | MCV ([…], time 7 day): 62.3 fL | Mono ([…], time 7 day): 2.8% | Neu ([…], time 7 day): 17.2% | PT ([…], time 7 day): 16 s | Plat ([…], time 7 day): 112.6 x10_4/uL | RBC ([…], time 7 day): 638 x10_4/ul | Ret ([…], time 7 day): 6.6% | WBC ([…], time 7 day): 118.8 x10_2/uL | APTT ([…], time 14 day): 17.7 s | Bas ([…], time 14 day): 0.2% | Eos ([…], time 14 day): 0.8% | Fbg ([…], time 14 day): 275.8 mg/dL | Hb ([…], time 14 day): 13.8 g/dL | Ht ([…], time 14 day): 40.9% | Lym ([…], time 14 day): 79.4% | MCH ([…], time 14 day): 20.8 pg | MCHC ([…], time 14 day): 33.6% | MCV ([…], time 14 day): 62 fL | Mono ([…], time 14 day): 2.2% | Neu ([…], time 14 day): 16.4% | PT ([…], time 14 day): 16 s | Plat ([…], time 14 day): 107 x10_4/uL | RBC ([…], time 14 day): 660.4 x10_4/ul | Ret ([…], time 14 day): 4.7% | WBC ([…], time 14 day): 97.8 x10_2/uL | APTT ([…], time 28 day): 19.5 s | Bas ([…], time 28 day): 0% | Eos ([…], time 28 day): 1% | Fbg ([…], time 28 day): 290.4 mg/dL | Hb ([…], time 28 day): 14.6 g/dL | Ht ([…], time 28 day): 43.4% | Lym ([…], time 28 day): 76.4% | MCH ([…], time 28 day): 19.4 pg | MCHC ([…], time 28 day): 33.5% | MCV ([…], time 28 day): 57.8 fL | Mono ([…], time 28 day): 2.6% | Neu ([…], time 28 day): 18.6% | PT ([…], time 28 day): 16.2 s | Plat ([…], time 28 day): 107.8 x10_4/uL | RBC ([…], time 28 day): 751 x10_4/ul | Ret ([…], time 28 day): 2.5% | WBC ([…], time 28 day): 90.2 x10_2/uL | KIDNEY_L ([…], time 7 day): 1 g | KIDNEY_R ([…], time 7 day): 1 g | KIDNEY_TOTAL ([…], time 7 day): 2 g | KIDNEY_L ([…], time 14 day): 1.2 g | KIDNEY_R ([…], time 14 day): 1.2 g | KIDNEY_TOTAL ([…], time 14 day): 2.4 g | KIDNEY_L ([…], time 28 day): 1.2 g | KIDNEY_R ([…], time 28 day): 1.3 g | KIDNEY_TOTAL ([…], time 28 day): 2.5 g | LIVER ([…], time 7 day): 11.4 g | LIVER ([…], time 14 day): 13.6 g | LIVER ([…], time 28 day): 14.2 g | A/G ([…], time 7 day): 0.8 | ALP ([…], time 7 day): 1392.6 IU/L | ALT ([…], time 7 day): 50 IU/L | AST ([…], time 7 day): 74.2 IU/L | BUN ([…], time 7 day): 18.2 mg/dL | CRE ([…], time 7 day): 0.2 mg/dL | Ca ([…], time 7 day): 10.8 mg/dL | Cl ([…], time 7 day): 107 meq/L | DBIL ([…], time 7 day): 0.01 mg/dL | GLC ([…], time 7 day): 194.2 mg/dL | IP ([…], time 7 day): 7.4 mg/dL | K ([…], time 7 day): 3.6 meq/L | LDH ([…], time 7 day): 81.8 IU/L | Na ([…], time 7 day): 144.4 meq/L | PL ([…], time 7 day): 162.2 mg/dL | RALB ([…], time 7 day): 2.6 g/dL | TBIL ([…], time 7 day): 0.03 mg/dL | TC ([…], time 7 day): 85.4 mg/dL | TG ([…], time 7 day): 105.4 mg/dL | TP ([…], time 7 day): 5.7 g/dL | gamma-GTP ([…], time 7 day): 1 IU/L | A/G ([…], time 14 day): 0.8 | ALP ([…], time 14 day): 1782.8 IU/L | ALT ([…], time 14 day): 41 IU/L | AST ([…], time 14 day): 63 IU/L | BUN ([…], time 14 day): 18.8 mg/dL | CRE ([…], time 14 day): 0.2 mg/dL | Ca ([…], time 14 day): 10.6 mg/dL | Cl ([…], time 14 day): 105.8 meq/L | DBIL ([…], time 14 day): 0.01 mg/dL | GLC ([…], time 14 day): 208.4 mg/dL | IP ([…], time 14 day): 7.7 mg/dL | K ([…], time 14 day): 3.5 meq/L | LDH ([…], time 14 day): 99.6 IU/L | Na ([…], time 14 day): 144.6 meq/L | PL ([…], time 14 day): 170.2 mg/dL | RALB ([…], time 14 day): 2.7 g/dL | TBIL ([…], time 14 day): 0.02 mg/dL | TC ([…], time 14 day): 77.2 mg/dL | TG ([…], time 14 day): 175 mg/dL | TP ([…], time 14 day): 5.9 g/dL | gamma-GTP ([…], time 14 day): 1 IU/L | A/G ([…], time 28 day): 0.8 | ALP ([…], time 28 day): 1238 IU/L | ALT ([…], time 28 day): 40.2 IU/L | AST ([…], time 28 day): 64 IU/L | BUN ([…], time 28 day): 16.2 mg/dL | CRE ([…], time 28 day): 0.2 mg/dL | Ca ([…], time 28 day): 10.4 mg/dL | Cl ([…], time 28 day): 107.4 meq/L | DBIL ([…], time 28 day): 0.008 mg/dL | GLC ([…], time 28 day): 196.6 mg/dL | IP ([…], time 28 day): 6.5 mg/dL | K ([…], time 28 day): 3.2 meq/L | LDH ([…], time 28 day): 72.6 IU/L | Na ([…], time 28 day): 144.8 meq/L | PL ([…], time 28 day): 158.8 mg/dL | RALB ([…], time 28 day): 2.7 g/dL | TBIL ([…], time 28 day): 0.016 mg/dL | TC ([…], time 28 day): 73.4 mg/dL | TG ([…], time 28 day): 149.6 mg/dL | TP ([…], time 28 day): 6 g/dL | gamma-GTP ([…], time 28 day): 1 IU/L
